± gives the uncertainty stated by the source.
Assay: xn = mol fraction of the nth substance listed
Conditions: 100 kPa, x1 = 0.0001802

Measured: electrical conductivity

CCCC[n+]1ccn(C)c1.[Cl-] + O + CCCCCCCCCCCCCCCC[N+](C)(C)C.[Br-]
0.1 ± 0.06 S/m: 298 K, x3 = 1.532e-05 | 298 K, x3 = 1.612e-05 | 298 K, x3 = 1.691e-05 | 298 K, x3 = 1.77e-05 | 298 K, x3 = 1.848e-05 | 298 K, x3 = 1.928e-05 | 298 K, x3 = 2.005e-05 | 298 K, x3 = 2.081e-05 | 298 K, x3 = 2.159e-05 | 303 K, x3 = 2.159e-05 | 303 K, x3 = 2.31e-05 | 303 K, x3 = 2.46e-05 | 303 K, x3 = 2.608e-05 | 308 K, x3 = 8.72e-06 | 308 K, x3 = 1.04e-05 | 308 K, x3 = 1.206e-05 | 308 K, x3 = 1.37e-05
0.106 ± 0.06 S/m: 313 K, x3 = 1.691e-05 | 313 K, x3 = 1.848e-05 | 313 K, x3 = 2.005e-05 | 313 K, x3 = 2.159e-05 | 318 K, x3 = 2.31e-05 | 318 K, x3 = 2.46e-05 | 318 K, x3 = 2.608e-05
0.109 ± 0.06 S/m: 313 K, x3 = 3.462e-05 | 313 K, x3 = 3.599e-05 | 313 K, x3 = 3.732e-05 | 313 K, x3 = 3.866e-05 | 318 K, x3 = 3.998e-05
0.101 ± 0.06 S/m: 298 K, x3 = 2.234e-05 | 298 K, x3 = 2.31e-05 | 298 K, x3 = 2.386e-05 | 298 K, x3 = 2.46e-05 | 298 K, x3 = 2.534e-05 | 303 K, x3 = 2.754e-05 | 303 K, x3 = 2.9e-05 | 303 K, x3 = 3.043e-05 | 303 K, x3 = 3.184e-05 | 303 K, x3 = 3.324e-05 | 303 K, x3 = 3.462e-05 | 308 K, x3 = 1.532e-05 | 308 K, x3 = 1.691e-05 | 308 K, x3 = 1.848e-05 | 308 K, x3 = 2.005e-05 | 313 K, x3 = 8.8e-07 | 313 K, x3 = 1.79e-06 | 318 K, x3 = 8.8e-07 | 318 K, x3 = 1.79e-06
0.098 ± 0.06 S/m: 298 K, x3 = 4.42e-06 | 298 K, x3 = 5.31e-06 | 298 K, x3 = 6.17e-06 | 298 K, x3 = 7.02e-06 | 298 K, x3 = 7.87e-06 | 298 K, x3 = 8.72e-06 | 303 K, x3 = 1.04e-05 | 303 K, x3 = 1.206e-05 | 303 K, x3 = 1.37e-05 | 308 K, x3 = 3.56e-06 | 308 K, x3 = 4.42e-06 | 308 K, x3 = 5.31e-06
0.094 ± 0.06 S/m: 303 K, x3 = 8.8e-07
0.095 ± 0.06 S/m: 298 K, x3 = 8.8e-07 | 303 K, x3 = 1.79e-06 | 303 K, x3 = 2.67e-06
0.105 ± 0.06 S/m: 308 K, x3 = 3.998e-05 | 313 K, x3 = 1.04e-05 | 313 K, x3 = 1.206e-05 | 313 K, x3 = 1.37e-05 | 313 K, x3 = 1.532e-05 | 318 K, x3 = 1.532e-05 | 318 K, x3 = 1.691e-05 | 318 K, x3 = 1.848e-05 | 318 K, x3 = 2.005e-05 | 318 K, x3 = 2.159e-05
0.108 ± 0.06 S/m: 313 K, x3 = 2.9e-05 | 313 K, x3 = 3.043e-05 | 313 K, x3 = 3.184e-05 | 313 K, x3 = 3.324e-05 | 318 K, x3 = 3.462e-05 | 318 K, x3 = 3.599e-05 | 318 K, x3 = 3.732e-05 | 318 K, x3 = 3.866e-05
0.107 ± 0.06 S/m: 313 K, x3 = 2.31e-05 | 313 K, x3 = 2.46e-05 | 313 K, x3 = 2.608e-05 | 313 K, x3 = 2.754e-05 | 318 K, x3 = 2.754e-05 | 318 K, x3 = 2.9e-05 | 318 K, x3 = 3.043e-05 | 318 K, x3 = 3.184e-05 | 318 K, x3 = 3.324e-05
0.099 ± 0.06 S/m: 298 K, x3 = 9.57e-06 | 298 K, x3 = 1.04e-05 | 298 K, x3 = 1.124e-05 | 298 K, x3 = 1.206e-05 | 298 K, x3 = 1.289e-05 | 298 K, x3 = 1.37e-05 | 298 K, x3 = 1.451e-05 | 303 K, x3 = 1.532e-05 | 303 K, x3 = 1.691e-05 | 303 K, x3 = 1.848e-05 | 303 K, x3 = 2.005e-05 | 308 K, x3 = 6.17e-06 | 308 K, x3 = 7.02e-06 | 308 K, x3 = 7.87e-06
0.102 ± 0.06 S/m: 303 K, x3 = 3.599e-05 | 303 K, x3 = 3.732e-05 | 303 K, x3 = 3.866e-05 | 303 K, x3 = 3.998e-05 | 308 K, x3 = 2.159e-05 | 308 K, x3 = 2.31e-05 | 308 K, x3 = 2.46e-05 | 308 K, x3 = 2.608e-05 | 313 K, x3 = 2.67e-06 | 313 K, x3 = 3.56e-06 | 318 K, x3 = 2.67e-06 | 318 K, x3 = 3.56e-06 | 318 K, x3 = 4.42e-06
0.096 ± 0.06 S/m: 298 K, x3 = 1.79e-06 | 303 K, x3 = 3.56e-06 | 303 K, x3 = 4.42e-06 | 303 K, x3 = 5.31e-06 | 308 K, x3 = 8.8e-07
0.11 ± 0.06 S/m: 313 K, x3 = 3.998e-05
0.104 ± 0.06 S/m: 308 K, x3 = 3.462e-05 | 308 K, x3 = 3.599e-05 | 308 K, x3 = 3.732e-05 | 308 K, x3 = 3.866e-05 | 313 K, x3 = 6.17e-06 | 313 K, x3 = 7.02e-06 | 313 K, x3 = 7.87e-06 | 313 K, x3 = 8.72e-06 | 318 K, x3 = 8.72e-06 | 318 K, x3 = 1.04e-05 | 318 K, x3 = 1.206e-05 | 318 K, x3 = 1.37e-05
0.097 ± 0.06 S/m: 298 K, x3 = 2.67e-06 | 298 K, x3 = 3.56e-06 | 303 K, x3 = 6.17e-06 | 303 K, x3 = 7.02e-06 | 303 K, x3 = 7.87e-06 | 303 K, x3 = 8.72e-06 | 308 K, x3 = 1.79e-06 | 308 K, x3 = 2.67e-06
0.103 ± 0.06 S/m: 308 K, x3 = 2.754e-05 | 308 K, x3 = 2.9e-05 | 308 K, x3 = 3.043e-05 | 308 K, x3 = 3.184e-05 | 308 K, x3 = 3.324e-05 | 313 K, x3 = 4.42e-06 | 313 K, x3 = 5.31e-06 | 318 K, x3 = 5.31e-06 | 318 K, x3 = 6.17e-06 | 318 K, x3 = 7.02e-06 | 318 K, x3 = 7.87e-06

— the CheMixHub ionic liquid set
